From patent publication US12421211B2, “Heterocyclic compounds” (Hoffmann-La Roche Inc., priority 2021, dated 2025) come the findings set out here.

Assay [1] concerns Acinetobacter baumannii ATCC17961. Kind of assay: Antimicrobial susceptibility testing: 90% growth inhibitory concentration (IC90) determination. The format is cell-based. The conditions noted are these: Acinetobacter baumannii, ATCC17961, 16 h, 90% growth inhibitory concentration, Acinetobacter baumannii ATCC17961, Iso-Sensitest broth, OD 600 nm over 16 h; read-out: ATCC 17961 IC90. In short, it runs like this: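 Growth inhibition derived in log phase from OD600 kinetics (every 20 minutes, 16h, 35±2° C) of ATCC17961 in Iso-Sensitest medium, inoculum ~5×10^5 CFU/ml. Compounds tested as twofold series, 10 points (e.g. 50 to 0.097 μM final); IC90 and IC50 reported.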

Assay [2] has as its system Acinetobacter baumannii ATCC17978. Kind of assay: Minimal Inhibitory Concentration (MIC) assay. The format is cell-based. The conditions noted are these: read-out: MIC AB. ATCC17978. As to the method:
Minimal Inhibitory Concentration Protocol (MIC) Assay:
Table 2 provides the in vitro potency of the compounds of present invention obtained against the strain Acinetobacter baumannii ATCC17978, which was assessed by an MIC (Minimal Inhibitory Concentration) assay as follows.
Test compounds were prepared from 10 mM DMSO stock solutions. The top dose was diluted from 10 mM to 2.5 mM by DMSO, followed by serial 2-fold 11 points dilutions in DMSO in a master plate (Greiner, Cat No: 651201). 2 μL compounds were transferred from the master plate into a new 96-well assay plate (Costar, 3599).
The growth medium […] Mueller Hinton Broth (CAMHIB) was prepared by adding 22 g powder (BD, 212322) in 1 L purified water, autoclaved, and supplemented with sterilized CaCl2 (20 mg per liter) and MgCl2 (10 mg per liter).
Vials of each of the test microorganisms were maintained frozen in the vapor phase of a liquid nitrogen freezer. Took out the bacterial strain ATCC 17978 from liquid nitrogen freezer, thawed it at room temperature, and diluted the bacterial in the CAMHB medium to achieve a final inoculum of 2×10^5 CFU/mL. 98 μL of the adjusted bacteria suspension was dispensed to the assay plate and pipetted 5 times.
Then the assay plates were incubated for 20 hours at 35±2° C. in ambient air with humidity. Following incubation, MIC […] value, the lowest concentration of drug that inhibits visible growth of the microorganism, was recorded by visual judgment of bacterial growth through magnification mirror of MIC reader, and the assay plates were photographed with Qcount system as image raw data. Meanwhile, the D600 of assay plates was recorded with SpectraMax Plus384 as GD raw data.

The mark [3] stands for this setting: Acinetobacter baumannii ATCC17978, CAMHB medium, 20 hours at 35±2° C., visual reading.

Converted amounts (≈) assume the structure as drawn. Where a name gives a salt, the structure may show the parent alone. Read-outs that look alike come from different tables or passages of the source.

Take `CO[C@H]1CCCC[C@@H]1NC(=O)Cn1cc(-c2ccc(-c3cnc(C(=O)Nc4ccc(C(=O)N5CCN(C(=O)C6CC[N+](C)(C)CC6)CC5)c(Cl)c4)n3C)c(F)c2F)c(C)n1` (racemic) [Example G32, N-[3-chloro-4-[4-(1,1-dimethylpiperidin-1-ium-4-carbonyl)piperazine-1-carbonyl]phenyl]-5-[2,3-difluoro-4-[1-[2-[[(1S,2S)-2-methoxycyelohexyl]amino]-2-oxo-ethyl]-3-methyl-pyrazol-4-yl]phenyl]-1-methyl-imidazole-2-carboxamide; formate]: the IC90 in assay [1] came out at 185 nM. In assay [2] (setting [3]), the MIC stood at 0.66 µM.

As to `COCCn1cc(-c2ccc(-c3cnc(C(=O)Nc4ccc(C(=O)N5CCN(C(=O)C6CC[N+](C)(C)CC6)CC5)c(Cl)c4)n3C)c(F)c2F)c(CF)n1` [Example F29, N-[3-chloro-4-[4-(1,1-dimethylpiperidin-1-ium-4-carbonyl)piperazine-1-carbonyl]phenyl]-5-[2,3-difluoro-4-[3-(fluoromethyl)-1-(2-methoxyethyl)pyrazol-4-yl]phenyl]-1-methyl-imidazole-2-carboxamide; chloride], the IC90 in assay [1] amounted to 280 nM. In assay [2] (setting [3]), the MIC was 4.73 µM.

For the compound `COCCn1nc(C)c(-c2ccc(-c3cnc(C(=O)Nc4ccc(C(=O)N5CCN(C(=O)C[N+]6(C)C[C@@H](O)[C@H](O)C6)CC5)c(Cl)c4)n3C)c(F)c2F)c1C` (racemic) [Example C12, N-[3-chloro-4-[4-[2-[(3R,4R)-3,4-dihydroxy-1-methyl-pyrrolidin-1-ium-1-yl]acetyl]piperazine-1-carbonyl]phenyl]-5-[2,3-difluoro-4-[1-(2-methoxyethyl)-3,5-dimethyl-pyrazol-4-yl]phenyl]-1-methyl-imidazole-2-carboxamide; formate], in assay [1], the concentration for an effect of 90% (IC90) was 153 nM. For the same compound, the MIC in assay [2] (setting [3]) came to 1.2 µM.

Turning to `COCCn1ncc(-c2ccc(-c3cnc(C(=O)Nc4ccc(C(=O)N5CCN(C(=O)C6CCCN6)CC5)c(Cl)c4)n3C)c(F)c2F)c1C` (centres unmarked) [Example D29, N-[3-chloro-4-[4-(pyrrolidine-2-carbonyl)piperazine-1-carbonyl]phenyl]-5-[2,3-difluoro-4-[1-(2-methoxyethyl)-5-methyl-pyrazol-4-yl]phenyl]-1-methyl-imidazole-2-carboxamide; 2,2,2-trifluoroacetic acid], the 90% effect concentration (IC90) in assay [1] is below 20 nM. In addition, the MIC in assay [2] (setting [3]) is 0.45 µM (≈ 0.313 µg/mL).

Consider `COCCn1cc(-c2ccc(-c3cnc(C(=O)Nc4ccc(C(=O)N5CCN(C(=O)C[N+]6(C)CCC(O)(CO)CC6)CC5)c(Cl)c4)n3C)c(F)c2F)c(C)n1` (centres unmarked) [Example D18, N-[3-chloro-4-[4-[2-[4-hydroxy-4-(hydroxymethyl)-1-methyl-piperidin-1-ium-1-yl]acetyl]piperazine-1-carbonyl]phenyl]-5-[2,3-difluoro-4-[1-(2-methoxyethyl)-3-methyl-pyrazol-4-yl]phenyl]-1-methyl-imidazole-2-carboxamide; formate], for which the 90% effect concentration (IC90) in assay [1] was 58 nM. In assay [2] (setting [3]), the MIC is 1.23 µM.

With `COCCn1ncc(-c2ccc(-c3c(Cl)nc(C(=O)Nc4ccc(C(=O)N5CCN(C(=O)C6CC[N+](C)(C)CC6)CC5)c(Cl)c4)n3C)c(F)c2F)c1C` [Example F53, 4-chloro-N-[3-chloro-4-[4-(1,1-dimethylpiperidin-1-ium-4-carbonyl)piperazine-1-carbonyl]phenyl]-5-[2,3-difluoro-4-[1-(2-methoxyethyl)-5-methyl-pyrazol-4-yl]phenyl]-1-methyl-imidazole-2-carboxamide; formate], in assay [1], the IC90 amounted to 110 nM. In addition, the minimal inhibitory concentration (MIC) in assay [2] (setting [3]) was determined as 0.6 µM.

Turning to `COCCn1nc(C)c(-c2ccc(-c3cnc(C(=O)Nc4ccc(C(=O)N5CCN(C(=O)C6CC[N+](C)(C)CC6O)CC5)c(Cl)c4)n3C)c(F)c2F)c1C` (centres unmarked) [Example D4, N-[3-chloro-4-[4-(3-hydroxy-1,1-dimethyl-piperidin-1-ium-4-carbonyl)piperazine-1-carbonyl]phenyl]-5-[2,3-difluoro-4-[1-(2-methoxyethyl)-3,5-dimethyl-pyrazol-4-yl]phenyl]-1-methyl-imidazole-2-carboxamide; formate], the IC90 in assay [1] was found to be 178 nM. The minimum inhibitory concentration (MIC) in assay [2] (setting [3]) came out at 1.56 µM.

For `Cn1c(-c2ccc(-c3cn[nH]c3-c3ccccn3)c(F)c2F)cnc1C(=O)Nc1ccc(C(=O)N2CCN(C(=O)C3CC[N+](C)(C)CC3)CC2)c(Cl)c1` [Example I1, N-[3-chloro-4-[4-(1,1-dimethylpiperidin-1-ium-4-carbonyl)piperazine-1-carbonyl]phenyl]-5-[2,3-difluoro-4-[5-(2-pyridyl)-1H-pyrazol-4-yl]phenyl]-1-methyl-imidazole-2-carboxamide; formate], the IC90 in assay [1] came out at 432 nM. Besides, the MIC in assay [2] (setting [3]) amounted to 2.32 µM.

Turning to `Cn1c(-c2ccc(-c3cn[nH]c3-c3cscn3)c(F)c2F)cnc1C(=O)Nc1ccc(C(=O)N2CCN(C(=O)C3CC[N+](C)(C)CC3)CC2)c(Cl)c1` [Example I5, N-[3-chloro-4-[4-(1,1-dimethylpiperidin-1-ium-4-carbonyl)piperazine-1-carbonyl]phenyl]-5-[2,3-difluoro-4-(5-thiazol-4-yl-1H-pyrazol-4-yl)phenyl]-1-methyl-imidazole-2-carboxamide; formate], the MIC in assay [2] (setting [3]) stood at 0.58 µM.

Regarding `COCCn1nc(C)c(-c2ccc(-c3cnc(C(=O)Nc4ccc(C(=O)N5CCN(C(=O)C[N+]6(C)C[C@@H](N)[C@H](OC)C6)CC5)c(Cl)c4)n3C)c(F)c2F)c1C` (mixture of isomers) [Example C13, N-[4-[4-[2-[(3R,4R)-3-amino-4-methoxy-1-methyl-pyrrolidin-1-ium-1-yl]acetyl]piperazine-1-carbonyl]-3-chloro-phenyl]-5-[2,3-difluoro-4-[1-(2-methoxyethyl)-3,5-dimethyl-pyrazol-4-yl]phenyl]-1-methyl-imidazole-2-carboxamide; formic acid; formate], the MIC in assay [2] (setting [3]) was 1.22 µM.

As for `Cc1nn(CC(=O)NC2CCCCO2)cc1-c1ccc(-c2cnc(C(=O)Nc3ccc(C(=O)N4CCN(C(=O)C5CC[N+](C)(C)CC5)CC4)c(Cl)c3)n2C)c(F)c1F` (centres unmarked) [Example G21, N-[3-chloro-4-[4-(1,1-dimethylpiperidin-1-ium-4-carbonyl)piperazine-1-carbonyl]phenyl]-5-[2,3-difluoro-4-[3-methyl-1-[2-oxo-2-(tetrahydropyran-2-ylamino)ethyl]pyrazol-4-yl]phenyl]-1-methyl-imidazole-2-carboxamide; formate], in assay [2] (setting [3]), the MIC turned out to be 2.57 µM.

As for `Cc1c(-c2ccc(-c3cnc(C(=O)Nc4ccc(C(=O)N5CCN(C(=O)C6CC[N+](C)(C)CC6)CC5)c(Cl)c4)n3C)c(F)c2F)cnn1CC(=O)Nc1ccccn1` [Example G19, N-[3-chloro-4-[4-(1,1-dimethylpiperidin-1-ium-4-carbonyl)piperazine-1-carbonyl]phenyl]-5-[2,3-difluoro-4-[5-methyl-1-[2-oxo-2-(2-pyridylamino)ethyl]pyrazol-4-yl]phenyl]-1-methyl-imidazole-2-carboxamide; formate], in assay [2] (setting [3]), the minimum inhibitory concentration (MIC) worked out at 0.32 µM.

In the case of `Cn1c(-c2ccc(-c3cn[nH]c3CCCCO)c(F)c2F)cnc1C(=O)Nc1ccc(C(=O)N2CCN(C(=O)C3CC[N+](C)(C)CC3)CC2)c(Cl)c1` [Example F21, N-[3-chloro-4-[4-(1,1-dimethylpiperidin-1-ium-4-carbonyl)piperazine-1-carbonyl]phenyl]-5-[2,3-difluoro-4-[5-(4-hydroxybutyl)-1H-pyrazol-4-yl]phenyl]-1-methyl-imidazole-2-carboxamide; formate], the minimum inhibitory concentration (MIC) in assay [2] (setting [3]) came to 2.31 µM.

Consider `Cc1nn(CC(=O)Nc2ccccc2)cc1-c1ccc(-c2cnc(C(=O)Nc3ccc(C(=O)N4CCN(C(=O)C5CC[N+](C)(C)CC5)CC4)c(Cl)c3)n2C)c(F)c1F` [Example G5, 5-[4-[1-(2-anilino-2-oxo-ethyl)-3-methyl-pyrazol-4-yl]-2,3-difluoro-phenyl]-N-[3-chloro-4-[4-(1,1-dimethylpiperidin-1-ium-4-carbonyl)piperazine-1-carbonyl]phenyl]-1-methyl-imidazole-2-carboxamide; formate], for which the MIC in assay [2] (setting [3]) worked out at 0.32 µM.

Regarding `COCCn1ncc(-c2ccc(-c3cnc(C(=O)Nc4ccc(C(=O)N5CCN(C(=O)C6CC[N+](C)(CCS(N)(=O)=O)CC6)CC5)c(Cl)c4)n3C)c(F)c2F)c1C` (centres unmarked) [Example B34, N-[3-chloro-4-[4-[1-methyl-1-(2-sulfamoylethyl)piperidin-1-ium-4-carbonyl]piperazine-1-carbonyl]phenyl]-5-[2,3-difluoro-4-[1-(2-methoxyethyl)-5-methyl-pyrazol-4-yl]phenyl]-1-methyl-imidazole-2-carboxamide; formate], the minimum inhibitory concentration (MIC) in assay [2] (Acinetobacter baumannii, ATCC17978, 20 h) was 0.65 µM.

As usually defined, the IC90 is the concentration at which the effect reaches the 90% level. A word on the MIC: it is the least concentration at which growth counts as inhibited.
